Test results as given in ChEMBL document CHEMBL1201862, “PubChem BioAssay data set” (2004).
“And” between values parts separate entries of the source, which are not always exact repeats. Equal entries are not always repeated.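 Following 48 hours of exposure in 96-well plates, responses at five concentrations were used to interpolate endpoints linearly. The concentration for 50% growth inhibition is given as GI50.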 The source made the active and inactive calls. Cut-off read from the data, not from the text of the source: active = GI50 up to about 1.1 µM and inactive = higher.

What was measured:
Assay in all cases: inhibition of tumour cell growth, NCI panel, 48 h
[1] = system: CCRF-CEM
[2] = system: NCI-H226
[3] = system: MDA-N
[4] = system: K562
[5] = system: IGROV-1
[6] = system: MCF7
[7] = system: COLO 205
[8] = system: UO-31
[9] = system: RXF 393
[10] = system: OVCAR-3
[11] = system: PC-3
[12] = system: Hs-578T
[13] = system: SK-MEL-2
[14] = system: SW-620
[15] = system: NCI-H522
[16] = system: HCC 2998
[17] = system: HT-29
[18] = system: SR
[19] = system: 786-0
[20] = system: HCT-116
[21] = system: KM12
[22] = system: HOP-92
[23] = system: OVCAR-4
[24] = system: SK-OV-3
[25] = system: SF-295
[26] = system: Malme-3M
[27] = system: UACC-257
[28] = system: MDA-MB-231
[29] = system: MOLT-4
[30] = system: T47D
[31] = system: RPMI-8226
[32] = system: SNB-75
[33] = system: SK-MEL-5
[34] = system: SK-MEL-28
[35] = system: EKVX
[36] = system: LOX IMVI
[37] = system: A549
[38] = system: TK-10
[39] = system: CAKI-1
[40] = system: SN12C
[41] = system: OVCAR-8
[42] = system: M14
[43] = system: HL-60
[44] = system: DU-145
[45] = system: SF-268
[46] = system: HOP-62
[47] = system: NCI-H23
[48] = system: A498
[49] = system: MDA-MB-435
[50] = system: OVCAR-5
[51] = system: HCT-15
[52] = system: NCI/ADR-RES
[53] = system: NCI-H460
[54] = system: U-251
[55] = system: UACC-62
[56] = system: SNB-19

Structure (SMILES) | GI50 [2] | GI50 [3] | GI50 [4] | GI50 [5] | GI50 [6] | GI50 [7] | GI50 [9] | GI50 [10] | GI50 [11] | GI50 [16] | GI50 [17] | GI50 [19] | GI50 [21] | GI50 [25] | GI50 [27] | GI50 [32] | GI50 [33] | GI50 [34] | GI50 [35] | GI50 [38] | further results
CC1OC(O[C@H]2/C=C/C=C/C=C/C=C/C=C/C=C/C=C/[C@H](C)[C@@H](O)[C@@H](C)[C@H](C)OC(=O)C[C@H](O)C[C@H](O)CC[C@@H](O)[C@H](O)C[C@H](O)C[C@]3(O)C[C@H](O)[C@@H](C(=O)O)[C@H](C2)O3)C(O)C(N)C1O (stereo partly specified) | > 100 µM (inactive) | 7.69 µM (inactive) | 60.4 µM (inactive) | 10 µM (inactive) | 20.5 µM (inactive) | 24.3 µM (inactive) | 5.64 µM (inactive) | 15.9 µM (inactive) | 16.3 µM (inactive) | 28.5 µM (inactive) | 21.8 µM (inactive) | 4.4 µM (inactive) | 20.5 µM (inactive) | – | – | – | – | – | – | – | GI50 [1]: 6.15 µM (inactive); GI50 [8]: 1.79 µM (inactive); GI50 [12]: 9.25 µM (inactive); GI50 [13]: 36.7 µM (inactive); GI50 [14]: 11.6 µM (inactive); GI50 [15]: 8.87 µM (inactive); GI50 [18]: 2.35 µM (inactive); GI50 [20]: 24.3 µM (inactive); GI50 [22]: 32.2 µM (inactive); GI50 [23]: 18.2 µM (inactive); GI50 [24]: 37.3 µM (inactive)
CCOC(=O)c1sc2nc(-c3ccccc3)nn2c1CBr | – | – | 0.589 µM (active) | 3.17 µM (inactive) | 1.91 µM (inactive) | 1.9 µM (inactive) | 2.59 µM (inactive) | – | 2.06 µM (inactive) | 5.33 µM (inactive) | 1.89 µM (inactive) | 1.6 µM (inactive) | 2.11 µM (inactive) | 9.29 µM (inactive) | 2.16 µM (inactive) | 2.24 µM (inactive) | 1.77 µM (inactive) | 1.95 µM (inactive) | > 10 µM (inactive) | 2.34 µM (inactive) | GI50 [1]: 0.244 µM (active); GI50 [26]: 2.07 µM (inactive); GI50 [28]: 1.9 µM (inactive); GI50 [29]: 0.296 µM (active); GI50 [30]: 2.42 µM (inactive); GI50 [31]: 1.74 µM (inactive); GI50 [36]: 1.56 µM (inactive); GI50 [37]: 5.11 µM (inactive); GI50 [39]: 1.5 µM (inactive); GI50 [40]: 1.74 µM (inactive); GI50 [14]: 1.73 µM (inactive); GI50 [18]: 0.311 µM (active); GI50 [41]: 2.07 µM (inactive); GI50 [42]: 1.51 µM (inactive); GI50 [43]: 0.348 µM (active); GI50 [44]: > 10 µM (inactive); GI50 [45]: 2.04 µM (inactive); GI50 [24]: 3.12 µM (inactive); GI50 [46]: > 10 µM (inactive); GI50 [47]: 1.94 µM (inactive)
CC(=O)OCC1OC(n2c(-c3ccccc3)c(C)c(C)c(C#N)c2=S)C(OC(C)=O)C(OC(C)=O)C1OC(C)=O (stereo unspecified) | > 50 µM (inactive) | 28.8 µM (inactive) and 18.1 µM (inactive) | – | > 100 µM (inactive) | > 50 µM (inactive) | > 100 µM (inactive) | – | 37.4 µM (inactive) and 27.2 µM (inactive) | 26.4 µM (inactive) | > 50 µM (inactive) and 86.3 µM (inactive) | > 50 µM (inactive) | – | > 50 µM (inactive) | 21 µM (inactive) and 23.1 µM (inactive) | 54.5 µM (inactive) | > 100 µM (inactive) | > 100 µM (inactive) | 72.4 µM (inactive) | 13.5 µM (inactive) and 14.8 µM (inactive) | – | GI50 [26]: > 50 µM (inactive) and 38.1 µM (inactive); GI50 [28]: 12.9 µM (inactive) and 12.8 µM (inactive); GI50 [29]: > 50 µM (inactive); GI50 [30]: > 50 µM (inactive) and 34 µM (inactive); GI50 [48]: > 50 µM (inactive) and 43.8 µM (inactive); GI50 [39]: > 50 µM (inactive); GI50 [15]: > 50 µM (inactive) and 65.8 µM (inactive); GI50 [49]: 57.5 µM (inactive); GI50 [50]: 37.3 µM (inactive); GI50 [51]: 64.4 µM; GI50 [52]: 34.2 µM (inactive) and 47.4 µM (inactive); GI50 [43]: > 100 µM (inactive); GI50 [53]: > 50 µM (inactive) and 43.4 µM (inactive); GI50 [54]: 20.3 µM (inactive)
Cc1ccc(-c2cc(-c3ccco3)c(C#N)c(=S)n2C2OC(CO)C(O)C(O)C2O)cc1 (stereo unspecified) | – | 30.4 µM (inactive) and 34.4 µM (inactive) | 39 µM (inactive) | – | 27.9 µM (inactive) and 49 µM (inactive) | 27.2 µM (inactive) and 35.1 µM (inactive) | 18.6 µM (inactive) and 18.9 µM (inactive) | 21.4 µM (inactive) and 35.6 µM (inactive) | – | > 100 µM (inactive) | 34.9 µM (inactive) and 34 µM (inactive) | 36.6 µM (inactive) and 56.8 µM (inactive) | 17.2 µM (inactive) and 30.1 µM (inactive) | – | 53.8 µM (inactive) and 45.3 µM (inactive) | 66.4 µM (inactive) and 60.5 µM (inactive) | – | 52.2 µM (inactive) and 41 µM (inactive) | > 100 µM (inactive) and 95.9 µM (inactive) | 67.8 µM (inactive) and 54.5 µM (inactive) | GI50 [31]: 4.46 µM (inactive) and 6.04 µM (inactive); GI50 [48]: 41 µM (inactive) and 28.2 µM (inactive); GI50 [8]: 18.5 µM (inactive) and 31.7 µM (inactive); GI50 [55]: 2.23 µM (inactive) and 2.48 µM (inactive); GI50 [56]: 36.1 µM (inactive) and 68.9 µM (inactive); GI50 [49]: 43.2 µM (inactive) and 38.9 µM (inactive); GI50 [50]: 45.7 µM (inactive) and 39.5 µM (inactive); GI50 [51]: 94.6 µM and 49.2 µM; GI50 [42]: 17.7 µM (inactive) and 30.3 µM (inactive); GI50 [53]: 28 µM (inactive) and 36.6 µM (inactive)
Cc1nc2ccc(Br)cc2c(=O)n1-c1ccc(NC2OCC(O)C(O)C2O)cc1 (stereo unspecified) | > 100 µM (inactive) | – | – | 62.4 µM (inactive) | – | – | – | – | – | – | – | – | – | > 100 µM (inactive) | – | – | 58.3 µM (inactive) | – | > 100 µM (inactive) | > 100 µM (inactive) and 59.3 µM (inactive) | GI50 [48]: > 100 µM (inactive); GI50 [37]: > 100 µM (inactive); GI50 [56]: > 100 µM (inactive); GI50 [12]: 58.9 µM (inactive); GI50 [50]: > 100 µM (inactive); GI50 [44]: > 100 µM (inactive); GI50 [45]: > 100 µM (inactive) and 55.6 µM (inactive); GI50 [23]: > 100 µM (inactive) and 87.5 µM (inactive); GI50 [46]: > 100 µM (inactive)
